Data on 15 compounds can be found in patent US20080280891A1, “Anti-cancer agents and uses thereof” (Locus Pharmaceuticals, Inc., priority 2006, published 2008).

Where only a bound is given, the exact number is not on record here.

Holding throughout (format): cell-based
Assay [1] deals with Jurkat cells. Description: Cell viability assay (WST-1), Jurkat cells. The note with it: Homo sapiens, WST-1, 48-72 hrs, 0.5% fetal calf serum. How it is done:
(§1) Jurkat and Hela cells were cultured in RPMI and EMEM media, respectively, containing 0.5% fetal calf serum. Cells were plated in a volume of 100 μL in a 96 well format. Test compounds were included in the culture media at concentrations ranging from 1 nM to 10 μM for a period of 48-72 hrs. Cell viability was determined using the WST-1 calorimetric mitochondrial reduction assay. Briefly, 10 μL of WST-1 reagent was included in the culture well for a period of 1 to 4 hrs. The WST-1 reaction was read on a multiwell spectrophotometer as the difference in the absorbance between 450 nm and 600 nm (baseline). Absorbance was proportional to the number of living cells in the culture well. Concentration response curves and IC50 values were calculated using GraphPAD Prism graphing and curve fitting program.
On the technique in general: Tetrazolium dyes change colour on reduction, which living cells bring about.

The test system of assay [2] is Hela cells. Description: Cell viability assay (WST-1), Hela cells. The note with it: Homo sapiens, HeLa, WST-1, 48-72 hrs, 0.5% fetal calf serum. How it is done:
as §1

Assay [3] concerns Jurkat T-cell leukemic cells. The assay is described as follows: Cell cycle assay (Example 163), G2/M block in Jurkat cells. To be noted: Homo sapiens, Jurkat, 24 h, flow cytometry (PI), Table 2. Background: In flow cytometry, cells or beads pass a laser one at a time.
Assay [4] has as its system MCF-7 breast cancer cells. Description: Cell cycle assay (Example 163), G2/M block in MCF-7 cells. The note with it: Homo sapiens, MCF7, 24 h, flow cytometry (PI), Table 2.

The term IC50 denotes the concentration needed to halve the response being measured. High values mean lower potency, low ones higher potency. In the case of `Oc1cc(Nc2cccnc2)cc(-c2ccc3cc[nH]c3c2)c1` [3-(1H-Indol-6-yl)-5-(pyridin-3-ylamino)-phenol], the IC50 in assay [1] and in assay [2] was 1000 to 30000 nM throughout. Further, the activation at 0.1 µM in assay [3] was < 50%. The activation at 1 µM in assay [4] is < 50%.
On to `Oc1cc(Nc2cccnc2)cc(-c2cccc3cc[nH]c23)c1` [3-(1H-Indol-7-yl)-5-(pyridin-3-ylamino)-phenol], for which the IC50 in assay [1] was 1000 to 30000 nM; in assay [2], > 3000 nM. Moreover, the activation at 0.1 µM in assay [3] was < 50%. The activation at 1 µM in assay [4] was < 50%.
Turning to `Oc1cc(Nc2cccnc2)cc(-c2cnc3ccccc3c2)c1` [3-(Pyridin-3-ylamino)-5-quinolin-3-yl-phenol], the IC50 lay in the range of 1 to 999 nM in assay [1] and 1000 to 30000 nM in assay [2]. For the same compound, in assay [3], the activation at 0.1 µM was < 50%. Further, the activation at 1 µM in assay [4] is < 50%.
With `COc1ccc(Cc2c(O)cc(Nc3cccnc3)cc2-c2cccc3sccc23)cc1` [3-benzo[b]thiophen-4-yl-2-(4-methoxy-benzyl)-5-(pyridin-3-ylamino)-phenol], the IC50 in assay [1] and in assay [2] was 1000 to 30000 nM each time. Moreover, the activation at 0.1 µM in assay [3] is ≥ 50%. The activation at 1 µM in assay [4] was < 50%.
`CN(C)c1cccc(-c2cc(O)cc(Nc3cccnc3)c2)c1` [3′-Dimethylamino-5-(pyridin-3-ylamino)-biphenyl-3-ol]: the IC50 in assay [1] and in assay [2] was 1000 to 30000 nM each time. Also, in assay [3], the activation at 0.1 µM is < 50%. Besides, in assay [4], the activation at 1 µM is < 50%.
Consider `Oc1cc(Nc2cccnc2)cc(-c2ccccc2C(F)(F)F)c1` [5-(Pyridin-3-ylamino)-2′-trifluoromethyl-biphenyl-3-ol], for which the IC50 in assay [1] is > 3000 nM; in assay [2], 1000 to 30000 nM. In addition, in assay [3], the activation at 0.1 µM was ≥ 50%. Also, the activation at 1 µM in assay [4] is < 50%.
Regarding `N#Cc1cnc(Nc2cc(O)cc(-c3cccc4[nH]ccc34)c2)cn1` [5-[3-Hydroxy-5-(1H-indol-4-yl)-phenylamino]-pyrazine-2-carbonitrile], the IC50 was > 3000 nM in assay [1] and 1000 to 30000 nM in assay [2]. In addition, the activation at 0.1 µM in assay [3] was < 50%. For the same compound, the activation at 1 µM in assay [4] was ≥ 50%.
For `O=C(c1cc(O)cc(-c2cccc3[nH]ccc23)c1)c1cccnc1Cl` [(2-Chloro-pyridin-3-yl)-[3-hydroxy-5-(1H-indol-4-yl)-phenyl]-methanone], the IC50 in assay [1] and in assay [2] was 1000 to 30000 nM each time. For the same compound, in assay [3], the activation at 0.1 µM was < 50%. Further, the activation at 1 µM in assay [4] was < 50%.
Regarding `O=C(c1cccnc1)c1ccc(O)c(C23CC4CC(CC(C4)C2)C3)c1` [(3-Adamantan-1-yl-4-hydroxy-phenyl)-pyridin-3-yl-methanone], the IC50 is 1000 to 30000 nM in assay [1] and > 3000 nM in assay [2]. Also, the activation at 0.1 µM in assay [3] was < 50%. Moreover, the activation at 1 µM in assay [4] is < 50%.
For the compound `Nc1ccc(C(=O)c2cc(O)cc(-c3cccc4[nH]ccc34)c2)cn1` [(6-Amino-pyridin-3-yl)-[3-hydroxy-5-(1H-indol-4-yl)-phenyl]-methanone], the IC50 lay within 1 to 999 nM in assay [1] and 1000 to 30000 nM in assay [2]. The activation at 0.1 µM in assay [3] is < 50%. Besides, the activation at 1 µM in assay [4] is ≥ 50%.
On the same counts, the results for `CS(=O)(=O)Nc1cccc(-c2cc(O)cc(Nc3cccnc3)c2)c1` [N-[5′-Hydroxy-3′-(pyridin-3-ylamino)-biphenyl-3-yl]-methanesulfonamide] are 1000 to 30000 nM, 1000 to 30000 nM, < 50% and ≥ 50%.
The matching figures for `O=[N+]([O-])c1cc(Nc2cccnc2)cc(-c2cccc3[nH]ccc23)c1` [[3-(1H-Indol-4-yl)-5-nitro-phenyl]-pyridin-3-yl-amine]: 1 to 999 nM, 1000 to 30000 nM, < 50% and < 50%.
The matching figures for `Cc1cncc(C(=O)c2cc(O)cc(-c3cccc4[nH]ccc34)c2)c1` [[3-Hydroxy-5-(1H-indol-4-yl)-phenyl]-(5-methyl-pyridin-3-yl)-methanone]: 1 to 999 nM, 1 to 999 nM, ≥ 50% and ≥ 50%.
For `O=C(c1ccc(CO)nc1)c1cc(O)cc(-c2cccc3[nH]ccc23)c1` [[3-Hydroxy-5-(1H-indol-4-yl)-phenyl]-(6-hydroxymethyl-pyridin-3-yl)-methanone], the IC50 in assay [1] was 1000 to 30000 nM; in assay [2] it was > 3000 nM. In assay [3], the activation at 0.1 µM is < 50%. Further, in assay [4], the activation at 1 µM was < 50%.
As to `O=C(c1cc(O)cc(-c2cccc3[nH]ccc23)c1)c1cnccn1` [[3-Hydroxy-5-(1H-indol-4-yl)-phenyl]-pyrazin-2-yl-methanone], the IC50 in assay [1] and in assay [2] was 1 to 999 nM each time. Moreover, the activation at 0.1 µM in assay [3] is < 50%. Besides, the activation at 1 µM in assay [4] is < 50%.
